Measurements: US4338320A, “Esters of 6'-hydroxycinchonine, and a method of treating arrythmia with them” (The Board of Regents of the University of Nebraska, priority 1978, dated 1982)
Entries after “also recorded” stand apart in the source; their conditions may differ. Read-outs that look alike come from different tables or passages of the source.

Key:
Type in all cases: in vivo
[1] = system: mice; assay: Aconitine-induced arrhythmia in mice
Description: Aconitine was used to induce arrhythmia and a saline solution served as the control for a third group.
A dosage in the same range as that previously set forth for cupreidine was utilized with mice for the compounds 6-benzylcinchonine and 6'-allylcinchonine. Aconitine was used to induce arrhythmia and a saline solution was used with the control group.

[2] = system: mice; assay: Antiarrhythmic effective dose in mice (dose probit curve); conditions: for ED50: Mus musculus
Protocol: (§1) Mice were treated at varying dosage levels for both quinidine and cupreidine. A dose probit curve was generated for the effective dose and lethal dose of each compound. The respective ED50 and LD50 values were derived from those curves using techniques well known to those skilled in the art.

[3] = Lethal dose in mice (dose probit curve); conditions: mouse, in vivo; mice; from dose probit curve
Protocol: as §1

[4] = system: mice; assay: Lethal dose in mice (dose probit curve); conditions: result in words
Protocol: as §1

[5] = Table III, dosage in the same range as for cupreidine, saline control 160. ± 5
[6] = Table III, dosage in the same range as for cupreidine, saline control 186. ± 6
[7] = Table II, intraperitoneal, cupreidine about 20.6 to about 26.8 mg/kg, quinidine 19.5-25.8 mg/kg, saline control 193. ± 11

Compound	Onset of Arrhythmia (time in seconds) [1, 5] [seconds]	Onset of Ventricular Tachycardia (time in seconds) [1, 6] [seconds]	ED50 ([2]; mice, from dose probit curve, read-out: ED50) [mg/kg]	LD50 [3] [mg/kg]	Onset of Ventricular Tachycardia (time in seconds) [1, 7] [seconds]	ED50 [2] [mg/kg]	effectiveness as an antiarrhythmic agent, relative to quinidine ([2]; result in words)	toxicity relative to quinidine [4]	Onset of Arrhythmia (time in seconds) ([1]; Table II, intraperitoneal, cupreidine about 20.6 to about 26.8 mg/kg, quinidine 19.5-25.8 mg/kg, saline control 153. ± 5) [seconds]
C=C[C@H]1CN2CC[C@H]1C[C@@H]2[C@@H](O)c1ccnc2ccc(OCc3ccccc3)cc12 [6-Benzylcinchonine, 6'-Benzyloxycinchonine]	195. ± 8	217. ± 6	–	–	–	–	–	–	–
C=CCOc1ccc2nccc([C@H](O)[C@H]3C[C@@H]4CCN3C[C@@H]4C=C)c2c1 [6'-Allylcinchonine, 6'-Allyloxycinchonine]	215. ± 9	261. ± 11	–	–	–	–	–	–	–
C=C[C@H]1C[N@@]2CC[C@H]1C[C@@H]2[C@@H](O)c1ccnc2ccc(OC)cc12 [Quinidine, reference compound]	–	–	22.4	202	294. ± 44	–	–	–	–
C=CC1CN2CCC1CC2C(O)c1ccnc2ccc(O)cc12 (stereo not shown) [Cupreidine, 6'-hydroxycinchonine]	–	–	–	304	250. ± 22	23.5	equal or superior to quinidine; also recorded: comparable to that of quinidine	greatly reduced toxicity	198. ± 8
